In a melting point compilation (Tetko et al.; mined from patent text by program, amines drawn as free bases though some values may be those of a salt):

SMILES | melting point [°C]
CCC1CC2=CC(O)CCC2C2CCC3(C)C(O)CCC3C12 (stereo not drawn) | 93 to 95
COc1ccc(C(Cl)Sc2ccc(Cl)cc2)cc1 (stereo not drawn) | 76 to 77
O=c1c(CO)cc(-c2ccc3c(c2)CCO3)nn1Cc1ccc(Cl)cc1 | 129 to 134
NS(=O)(=O)c1ccc(-c2cc(F)c(F)cc2-c2ccc(F)cc2)cc1 | 190 to 192
COc1ccc2cc(C(=O)NC3N=C(c4ccccc4)c4ccccc4-n4c(C)nnc43)[nH]c2c1 (stereo not drawn) | 160 to 170
CS(=O)(=S)OCCCCC(=O)O (stereo not drawn) | 61 to 62.5
C[C@H](NC(=O)CCn1cc(C2=C(c3cn(C)c4ccccc34)C(=O)NC2=O)c2ccccc21)C(=O)NCC(=O)N[C@@H](CCCCN)C(N)=O | 158 to 160
C[C@H](NS(=O)(=O)C12CC3CC(CC(C3)C1)C2)C(=O)N1CCC[C@H]1C(=O)Nc1ccccc1 | 138 to 141
O=C(Nc1cccc2c1C(=O)c1c-2n[nH]c1-c1ccc(C(=O)N2CCCC2)s1)NN1CCOCC1 | > 300
CN(C)C(=O)CNC(=O)c1ccc(-c2ccc3nnn(Cc4ccc5ncccc5c4)c3n2)cc1F | 177 to 179
Cn1c(=O)n(CCC[C@@H](NS(=O)(=O)c2ccc(-c3ccccc3)cc2)C(=O)NO)c(=O)c2ccccc21 | 202 to 203
COc1c(Br)cc2c3c(cccc13)C(=O)N(O)C2=O | 223 to 227
COC(=O)NCCOc1ccc(Oc2ccc(F)cc2)cc1 | 64 to 66
O=C(O)CC1C(CCl)=CCC1O (stereo not drawn) | 33 to 34
C(=CCN(c1ccccc1)c1cccc2ccccc12)CN(c1ccccc1)c1cccc2ccccc12 | 140 to 142
O=S(=O)(NCC(O)(Cn1cncn1)c1ccc(Cl)cc1Cl)c1ccc(Cl)cc1 (stereo not drawn) | 182 to 183
CNC(=O)COc1cc(C(F)(F)F)cc(C(F)(F)F)c1 | 98 to 99
CC(C)(C)c1ccc(-c2ccc(COc3cccc4cc(NS(=O)(=O)C(F)(F)F)ccc34)c(F)c2)cc1 | 162 to 164
CCCCCC(=O)N(CO)C1N=C(c2ccccc2)c2ccccc2N(C)C1=O (single isomer, unassigned; (+)) | 154 to 156
c1ccc2nc(COc3ccc(NC4CCCC4)cc3)ccc2c1 | 88
CCNC(=O)c1nc(Cl)c(Cl)[nH]1 | 146
CCCn1nc(SCCCCC(=O)O)c(C(=O)O)c1Cc1cc2c(cc1Cl)OCO2 | 185

SMILES | melting point [°C]
CNc1nnc(-c2cc(C(C)(C)C)c(O)c(C(C)(C)C)c2)s1 | 208
COc1cc2c(Cl)c(C#N)cnc2cc1F | 160 to 162
O=S(=O)(Nc1ccc2c(OCc3ccc(I)cc3)cccc2c1)C(F)(F)F | 120 to 122
Cc1cc(-c2ccc(C(F)(F)F)cc2)nc(-c2cccc(-c3cccc(S(=O)(=O)NC(C)(C)C)c3)n2)n1 | > 250
CC(=O)C=Cc1c(-c2ccccc2)nn2ccccc12 | 134 to 136
c1ccc(-c2ccc(COc3ccc4c(c3)CCC(CCn3ccnc3)C4)cc2)cc1 (stereo not drawn) | 145 to 146
O=C1NC(=NC2CCCCC2)C(c2ccc(Br)cc2)N1c1ccc2[nH]cnc2c1 (stereo not drawn) | 205
COc1cc(COc2ncccc2C#N)ccc1OCc1nc(-c2ccccc2)oc1C | 117 to 118
CCOC(CCNC(=O)CCC(=O)NCCC(OCC)OCC)OCC | 89 to 90
O=C(O)c1cccnn1 | 156 to 158
O=P(O)(O)C1(P(=O)(O)O)CCCCN1 | 70
NC(=O)NC1COCC1c1ccccc1-n1nc(C(F)(F)F)cc1C(F)(F)F (stereo not drawn) | 198 to 200
Cc1nc2ccc3c(c2o1)OC(CN1C2CCC1CC(O)(c1ccc4ccccc4c1)C2)CO3 (stereo not drawn) | 192 to 195
CCCCCCc1cc2c(cc1OCCCC(=O)O)C(=O)CC2 | 88
c1cc(Sc2cccc3cnccc23)c2ccncc2c1 | 138 to 140
BrCc1cccc2cccc(CBr)c12 | 131 to 132
COc1ccc(S(=O)C(C(=O)NO)c2ccccc2)cc1 (stereo not drawn) | 135
Cn1cc(Br)nc(Nc2cnn(C3CC3)c2)c1=O | 228 to 230
CON=C(C1=Nc2ccc(Cl)cc2C(c2ccccc2F)=[N+]([O-])C1)[N+](=O)[O-] | 207 to 209
C[C@@H](n1cc(Cn2cncn2)nn1)[C@](O)(Cn1cncn1)c1ccc(F)cc1F | 162 to 163
Sc1ncc(CCCCc2ccccc2)[nH]1 | 168 to 169
CCOc1ccccc1CS(N)(=O)=O | 92 to 93

Further lines, results first:

melting point [°C] | SMILES
182 to 185 | CN(C)c1ccc(C2(c3ccc(N(C)C)cc3N(C)C)OC(=O)c3cc(N(C)C)ccc32)cc1 (stereo not drawn)
144 to 146 | COc1cc2c(cc1OC)CC(=O)N(Cc1cccnc1)C=C2
128 to 129 | COc1cc2ncnc(N3CCc4ccc(C(C)C)cc43)c2cc1OC
143 to 145 | COc1cc2c(cc1Cl)C(O)Cc1ccc(F)cc1S2 (stereo not drawn)
177 | COc1ccc(S(=O)(=O)C(C)(Cc2ccc(-c3ccccc3)cc2)C(=O)NO)cc1 (stereo not drawn)
104 to 106 | CCCCCCCCNC(=O)N1CCC(c2cc(Cc3ccc(OC)cc3)nc(N)n2)CC1
193 to 196 | CCCn1c(COCC)nc2c(N)nc3ccc(OC(=O)N4CCOCC4)cc3c21
67 to 68 | CSc1ccc(C2=C(c3ccc(F)cc3C)CCC2)cc1
79 | CSc1ccc(C=CC#N)cc1
103 to 104 | COc1cccc(-n2nc(Cl)cc2-c2ccc(S(C)(=O)=O)cc2)c1
226 to 228 | COC1=C(OC)C(=O)c2cc(NC(C)=O)ccc2C1=O
114 to 115 | C=CCN(C(C)=O)c1cccc(-c2ccc3nnc(C)n3n2)c1
257 to 259 | O=C1CCC(N2C(=O)c3cccc(NC(=O)c4cccc(Cl)c4)c3C2=O)C(=O)N1 (stereo not drawn)
130 to 134 | CC(C)n1c(-c2ccccc2)nc(-c2ccc(F)cc2)c1C=O
211 to 213 | O=C(c1cccs1)c1cnn2c(-c3cccc(-n4cccc4)c3)ccnc12
112 to 114 | COc1cc(-c2ccc(C(F)(F)F)cc2)c(C(C)=NOCc2ccc([N+](=O)[O-])cc2)cc1O
91 to 96 | CC(C)c1ccc(Nc2ccccc2[N+](=O)[O-])c(C#N)c1
165 | CC1(Cc2ccccc2)COc2cc(C(=O)O)ccc21 (stereo not drawn)
116 to 117 | Cc1c(Br)cc2c(c1C)OC(=O)C2(C)c1ccc(C(C)C)cc1 (stereo not drawn)
196 | Cn1ncnc1COc1nn2c(-c3ccc(F)cc3F)nnc2cc1C1(C)CCCCC1
51 to 52 | Fc1ccc(N=Cc2ccccc2)c(F)c1
126 to 127 | CCOC(=O)C(=O)c1oc(-n2ccnc2C)nc1-c1ccc(Cl)cc1
189 | O=Cc1ccc(C(=O)Nc2nccs2)cc1
165 to 167 | CC(C)C(NS(=O)(=O)c1ccc(-c2ccc([N+](=O)[O-])cc2)cc1)C(=O)O (stereo not drawn)
290 | CC1(C)CCC(C)(C)c2cc3oc(-c4ccc(C(=O)O)cc4)nc3cc21
182 to 186 | Cc1csc2nc3cccc(C(F)(F)F)c3c(=O)n12
172 to 178 | Cc1ccc(S(=O)(=O)OC(=O)c2cccc(C(=O)OS(=O)(=O)c3ccc(C)cc3)c2)cc1

melting point [°C] | SMILES
165 to 167 | CNC(=O)c1ccccc1Nc1nc(Nc2ccc(OC)c3c2N(C)C(=O)CCC3)ncc1Cl
97 to 99 | COC(=O)[C@H](CCCCNC(=O)OCc1ccccc1)n1c2ccccc2c2ccccc21
180 to 182 | O=C(O)c1cc(OCC(=O)c2ccccc2)cc(C(F)(F)F)c1
137 | CN(CCO)Cc1ccc(-c2ccc(N3C[C@H](Cn4ccnn4)OC3=O)cc2F)cn1
163 | CCOC(=O)C1=C(C)NC(C)=C(C(=O)OC)C1c1ccc(SC)cc1 (stereo not drawn)
229 to 230 | CC(C)Cn1c(CNC(=O)OC(C)(C)C)c(-c2ccc(F)cc2)c2cc(O)ccc2c1=O
184 to 186 | O=C(O)c1cc(OCc2ccsc2)c(-c2ccccc2)c([N+](=O)[O-])c1
> 250 | CCOC(=O)c1nc2c(=O)[nH]c3cc(C(F)(F)F)ccc3n2c1Cn1ccnc1C
68 to 69 | CCOC(=O)C1CCc2c(sc3ccc(C)cc23)C1 (stereo not drawn)
89 | CCOC(=O)c1ccc2c(c1)OC(c1cc(Cl)cc(Cl)c1)(c1cc(Cl)cc(Cl)c1)O2
225 | CC(=O)c1ccc2c(c1)C1(c3ccccc3-c3ccccc31)c1ccccc1-2
98 to 100 | Nc1sc2c(c1C(=O)c1ccc(Cl)cc1)CCN(CCCc1ccccc1)C2
91 to 95 | Clc1ccc(C(=C2SCCCS2)C2CC2)cc1
236 to 238 | O=C(O)c1ccc(COCc2csc3nc(C(=O)NCc4cccc(Cl)c4)[nH]c(=O)c23)cc1
124 to 126 | NC(=O)C(c1ccccc1Cl)N1CCc2sccc2C1 (stereo not drawn)
157 to 158 | CCN1c2ncc(CC(OC(C)=O)c3ccncc3)cc2C(=O)N(C)c2ccc(Cl)nc21 (stereo not drawn)
140 to 143 | Cc1cc(CC(=O)O)n(C)c1C(=O)c1ccc(Cl)cc1Cl
118 to 120 | CCOC(=O)c1ccc(C=C(C)c2cc3c(s2)C(C)(C)CCC3(C)C)cc1
293 to 295 | O=C1CC(c2ccccc2OCc2ccccc2)=Nc2ccc(N3CCCC3)cc21
215 to 216 | Cc1ccc(-n2c(=O)c(C)nc3cccnc32)cc1
77 to 78 | CCCC[C@H](NC(=O)[C@H](CC(C)C)NC(=O)c1ccccc1OC)C(=O)CSCc1ccco1
82 to 84 | CCOC(=O)C1C(=O)N(CC)c2cc3c(cc21)OCC3 (stereo not drawn)
91 to 93 | CCOC(C)OCC(C)C1CCC2C3C=CC4=CC(=O)C5OC5C4(C)C3CCC12C (stereo not drawn)
141 to 142 | Cc1nn(Cc2ccccc2)c(=O)[nH]c1=O
182 | CCOc1nc2ccccc2nc1C(=O)Nc1ccc(OCCCCN2CCc3cc(OC)c(OC)cc3C2)cc1
203 to 205 | COC(=O)c1ccc(C(=O)NC(C)C)cc1S(N)(=O)=O
129 to 130 | CCOC(=O)NN(C)c1ccc(-c2ccccc2)nn1
